Assay results taken from the supplement of paper PMC10307832.

Columns and labels:
Assay in all cases: relative viability (nuclei count vs DMSO), 5 days (fraction); higher = more cells survive
Midostaurin + Pemetrexed = compound: CO[C@@H]1[C@H](N(C)C(=O)c2ccccc2)C[C@H]2O[C@]1(C)n1c3ccccc3c3c4c(c5c6ccccc6n2c5c31)C(=O)NC4 [Midostaurin] + Nc1nc2[nH]cc(CCc3ccc(C(=O)N[C@@H](CCC(=O)O)C(=O)O)cc3)c2c(=O)[nH]1 [Pemetrexed] (partner 0.2 µM)
Method in brief: (§1)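 Five library-drug doses in √10 steps were combined with a fixed anchor-drug dose, or a single drug was given alone, by pin tool to lung cancer cell lines in 1536-well plates the day after seeding. Nuclei were stained and counted after 5 days. Relative viability is the nuclei count in treated wells over that in vehicle wells, taken as the median of duplicate plates.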

[1] = compound: COc1cc(-c2nn([C@H]3CC[C@H](N4CCN(C(C)=O)CC4)CC3)c3ncnc(N)c23)ccc1NC(=O)c1cc2ccccc2n1C + O=C(c1cc(Cc2n[nH]c(=O)c3ccccc23)ccc1F)N1CCN(C(=O)C2CC2)CC1 [Olaparib] (partner 8 µM)
Method in brief: as §1

Midostaurin + Alpelisib = compound: CO[C@@H]1[C@H](N(C)C(=O)c2ccccc2)C[C@H]2O[C@]1(C)n1c3ccccc3c3c4c(c5c6ccccc6n2c5c31)C(=O)NC4 [Midostaurin] + Cc1nc(NC(=O)N2CCC[C@H]2C(N)=O)sc1-c1ccnc(C(C)(C)C(F)(F)F)c1 [Alpelisib] (partner 2 µM)
Method in brief: as §1

Midostaurin + Olaparib = compound: CO[C@@H]1[C@H](N(C)C(=O)c2ccccc2)C[C@H]2O[C@]1(C)n1c3ccccc3c3c4c(c5c6ccccc6n2c5c31)C(=O)NC4 [Midostaurin] + O=C(c1cc(Cc2n[nH]c(=O)c3ccccc23)ccc1F)N1CCN(C(=O)C2CC2)CC1 [Olaparib] (partner 8 µM)
Method in brief: as §1

[2] = compound: COc1cc(-c2nn([C@H]3CC[C@H](N4CCN(C(C)=O)CC4)CC3)c3ncnc(N)c23)ccc1NC(=O)c1cc2ccccc2n1C + C[C@]1(O)C[C@@H](c2nc(-c3ccc4ccc(-c5ccccc5)nc4c3)c3c(N)nccn32)C1 [Linsitinib] (partner 1 µM)
Method in brief: as §1

| Cell Line | relative viability (Midostaurin + Pemetrexed; first compound 0.01 µM) | relative viability (Midostaurin + Pemetrexed; first compound 0.03162 µM) | relative viability (Midostaurin + Pemetrexed; first compound 0.1 µM) | relative viability (Midostaurin + Pemetrexed; first compound 0.3162 µM) | relative viability ([1]; first compound 0.0128 µM) | relative viability ([1]; first compound 0.04048 µM) | relative viability ([1]; first compound 0.128 µM) | relative viability ([1]; first compound 1.28 µM) | relative viability (Midostaurin + Alpelisib; first compound 0.01 µM) | relative viability (Midostaurin + Alpelisib; first compound 0.1 µM) | relative viability (Midostaurin + Alpelisib; first compound 0.3162 µM) | relative viability (Midostaurin + Olaparib; first compound 0.01 µM) | relative viability (Midostaurin + Olaparib; first compound 0.03162 µM) | relative viability (Midostaurin + Olaparib; first compound 0.1 µM) | relative viability (Midostaurin + Olaparib; first compound 0.3162 µM) | relative viability ([2]; first compound 0.0128 µM) | relative viability ([2]; first compound 0.04048 µM) | relative viability ([2]; first compound 0.128 µM) | relative viability ([2]; first compound 1.28 µM) | relative viability (Midostaurin + Alpelisib; first compound 0.03162 µM) |
| --- | --- | --- | --- | --- | --- | --- | --- | --- | --- | --- | --- | --- | --- | --- | --- | --- | --- | --- | --- | --- |
| LCLC-97TM1 | 0.164 | 0.137 | 0.193 | 0.166 | 0.455 | 0.501 | 0.326 | 0.441 | 0.251 | 0.185 | 0.211 | 0.52 | 0.374 | 0.32 | 0.464 | 0.183 | 0.205 | 0.173 | 0.238 | – |
| LCLC-103H | 0.464 | 0.53 | 0.452 | 0.467 | 0.851 | 0.79 | 0.615 | 0.773 | 0.932 | 1.04 | 1.06 | 0.746 | 0.813 | 0.717 | 0.805 | 1.12 | 1.21 | 0.957 | 1.01 | 0.979 |
| PC-3 [JPC-3] | 0.979 | 1.07 | 0.962 | 1.22 | 1.15 | 1.35 | 1.08 | 1.24 | 1 | 1.02 | 1.04 | 1.08 | 0.946 | 1.05 | 1.07 | 1.02 | 0.957 | 0.966 | 0.997 | 0.925 |
| BEN | 0.809 | 0.674 | 0.665 | 0.752 | 1.1 | 1.05 | 1.02 | 0.848 | 1.03 | 0.968 | 1.06 | 1.12 | 1.24 | 0.928 | 1.13 | 0.815 | 0.926 | 0.851 | 0.644 | 1.02 |
| NCI-H1666 | 0.876 | 0.812 | 0.74 | 0.722 | 0.763 | 0.793 | 0.793 | 0.827 | 1.06 | 0.838 | 0.732 | 0.709 | 0.708 | 0.694 | 0.673 | 0.804 | 0.816 | 0.733 | 0.771 | 0.788 |
| LC-2-ad | 0.295 | 0.281 | 0.25 | 0.258 | 0.783 | 0.835 | 0.658 | 0.8 | 0.82 | 0.878 | 0.654 | 0.738 | 0.688 | 0.673 | 0.691 | 0.659 | 0.846 | 0.835 | 0.681 | 0.78 |
| SK-LU-1 | 0.99 | 0.92 | 0.836 | 0.794 | 0.411 | 0.6 | 0.431 | 0.402 | 0.913 | 0.894 | 0.647 | 0.471 | 0.439 | 0.443 | 0.346 | 1.23 | 1.26 | 0.839 | 0.558 | 1.17 |
| COR-L 105 | 1.15 | 0.945 | 1.11 | 0.873 | 0.798 | 0.676 | 0.594 | 0.478 | 1.08 | 0.778 | 1.05 | 0.829 | 0.626 | 0.527 | 0.616 | 1.04 | 0.77 | 0.898 | 0.549 | 0.823 |
| NCI-H1975 | 0.298 | 0.31 | 0.271 | 0.279 | 0.819 | 0.978 | 0.794 | 0.494 | 0.613 | 0.575 | 0.38 | 0.733 | 0.677 | 0.701 | 0.466 | 0.872 | 1.06 | 0.837 | 0.407 | 0.628 |
| NCI-H1993 | 0.627 | 0.542 | 0.597 | 0.51 | 0.997 | 1.11 | 0.885 | 0.891 | 0.714 | 0.675 | 0.643 | 1.08 | 0.791 | 1.01 | 1.11 | 0.91 | 0.691 | 0.698 | 0.611 | 0.657 |
| RERF-LC-KJ | 0.477 | 0.476 | 0.492 | 0.463 | 1.03 | 0.946 | 0.928 | 0.941 | 0.846 | 0.924 | 0.969 | 0.819 | 0.839 | 0.814 | 0.716 | 0.895 | 0.882 | 0.878 | 0.793 | 1.02 |
| NCI-H23 | 0.635 | 0.671 | 0.533 | 0.458 | 0.323 | 0.321 | 0.339 | 0.292 | 0.739 | 0.339 | 0.602 | 0.317 | 0.296 | 0.296 | 0.223 | 0.613 | 0.417 | 0.612 | 0.49 | 0.517 |
| HCC-366 | 0.156 | 0.15 | 0.153 | 0.156 | 0.394 | 0.328 | 0.361 | 0.252 | 0.331 | 0.318 | 0.323 | 0.336 | 0.358 | 0.302 | 0.117 | 0.531 | 0.513 | 0.531 | 0.257 | 0.297 |
| EMC-BAC-2 | 0.407 | 0.431 | 0.383 | 0.457 | 0.52 | 0.645 | 0.473 | 0.5 | 0.765 | 0.586 | 0.61 | 0.459 | 0.497 | 0.411 | 0.374 | 0.869 | 0.806 | 0.815 | 0.521 | 0.717 |
| NCI-H2405 | 1.11 | 1 | 0.974 | 1.27 | 0.908 | 0.719 | 0.756 | 0.453 | 0.87 | – | 0.573 | 0.841 | 0.827 | 0.838 | 0.861 | 0.886 | 0.541 | 0.721 | 0.326 | 0.903 |
